Reference: the OPERA property sets (Mansouri et al. 2018)

details: not given

Q: With Cc1ccc(C(C)C)cc1O as the compound, how does the boiling point read?
A: 238 °C

Q: What about the melting point of the same compound?
A: 1 °C

Q: Which boiling point does the source give for ClCCCI here?
A: 171 °C

Q: For CC(C)=CCN=C(N)N, which melting point is on record?
A: 62.5 °C

Q: For N#CCC=CCC#N, which log10 vapour pressure (mmHg) is on record?
A: -2.16

Q: What about the melting point of the same compound?
A: 76 °C

Q: Which boiling point does the source give for Fc1c(F)c(F)c(Br)c(Br)c1F here?
A: 198 °C

Q: What about the melting point of the same compound?
A: 12 °C

Q: With CCCCCC[Si](Cl)(Cl)Cl as the compound, how does the boiling point read?
A: 190 °C

Q: For CC(C)(C)CC(=O)O, which boiling point is on record?
A: 190 °C

Q: What about the melting point of the same compound?
A: 6.5 °C

Q: Which melting point does the source give for O=c1cccc2n1CC1CNCC2C1 (stereo not given) here?
A: 152 °C

Q: Which boiling point does the source give for CCOC(Cl)CCl (stereo not given) here?
A: 145 °C

Q: Which melting point does the source give for Br.CCNCC here?
A: 219 °C

Q: Which boiling point does the source give for CCCCC(CC)COC(=O)Cl (stereo not given) here?
A: 207 °C

Q: What about the log10 vapour pressure (mmHg) of the same compound?
A: -0.775

Q: For Nc1c([N+](=O)[O-])ccc(Oc2ccccc2)c1Cl, which log10 vapour pressure (mmHg) is on record?
A: -6.92

Q: What about the melting point of the same compound?
A: 81.5 °C

Q: With ClCI as the compound, how does the boiling point read?
A: 109 °C

Q: And the log10 Henry constant (atm·m³/mol)?
A: -3.06

Q: Which melting point does the source give for CC[C@]1(O)CC[C@H]2[C@@H]3CCC4=CC(=O)CC[C@@H]4[C@H]3CC[C@@]21C here?
A: 140 °C

Q: For Cc1c(C)c([N+](=O)[O-])c(C(C)(C)C)c([N+](=O)[O-])c1C, which melting point is on record?
A: 136 °C

Q: Which melting point does the source give for CC(C)(C#N)/N=N/C(C)(C)C#N here?
A: 102 °C

Q: For Cc1cc(F)ccc1N, which melting point is on record?
A: 14.2 °C

Q: What does the source list for CC(=O)C1=CCCCC1?
A: boiling point: 202 °C; melting point: 73 °C

Q: For CC(C)C[N+](=O)[O-], which boiling point is on record?
A: 140 °C

Q: And the log10 vapour pressure (mmHg)?
A: 0.838

Q: And the melting point?
A: -76.8 °C

Q: With Cc1cncc(C)n1 as the compound, how does the boiling point read?
A: 156 °C

Q: What about the melting point of the same compound?
A: 47.5 °C

Q: Which boiling point does the source give for CC(Cl)C(Cl)(Cl)C=O (stereo not given) here?
A: 164 °C

Q: With C=CCC1CCCCC1 as the compound, how does the boiling point read?
A: 132 °C

Q: With COc1ccc2c3c1O[C@H]1[C@@H](O)C=C[C@H]4[C@@H](C2)N(C)CC[C@@]341.Cl as the compound, how does the melting point read?
A: 280 °C

Q: Which boiling point does the source give for CC(=O)OC/C=C(\C)CCC=C(C)C here?
A: 238 °C

Q: What about the log10 vapour pressure (mmHg) of the same compound?
A: -1.48

Q: Which results are given for Oc1c(Cl)cccc1Cl?
A: boiling point: 220 °C; log10 vapour pressure (mmHg): -1.48; melting point: 68.5 °C; ready biodegradability: not readily biodegradable

Q: Which melting point does the source give for O[C@H]1[C@H](O)[C@H](O)OC[C@H]1O here?
A: 158 °C

Q: Which melting point does the source give for COC(=O)C1C2C=CC(C2)C1C(=O)OC (stereo not given) here?
A: 38 °C

Q: Which melting point does the source give for C#C[C@]1(O)CC[C@H]2[C@@H]3[C@H](C)CC4=C(CCC(=O)C4)[C@H]3CC[C@@]21C here?
A: 167 °C

Q: For CCCCCC(=O)CC(C)=O, which melting point is on record?
A: -18 °C

Q: What does the source list for Cc1cc(C)c(Br)c(C)c1?
A: boiling point: 225 °C; melting point: -1 °C

Q: Which results are given for CCc1cc(C(C)(C)C)c(O)c(C(C)(C)C)c1?
A: boiling point: 272 °C; melting point: 44 °C; ready biodegradability: not readily biodegradable

Q: For COc1cccc(-c2cccc(OC)c2)c1, which boiling point is on record?
A: 328 °C

Q: What about the melting point of the same compound?
A: 36 °C

Q: With Oc1ccccc1Cc1ccccc1 as the compound, how does the boiling point read?
A: 312 °C

Q: And the melting point?
A: 21 °C

Q: With NC1CCCC1 as the compound, how does the boiling point read?
A: 108 °C

Q: And the melting point?
A: -82.7 °C

Q: What does the source list for CCc1cccc(O)c1?
A: boiling point: 218 °C; log10 Henry constant (atm·m³/mol): -6.2; log10 vapour pressure (mmHg): -1.3; melting point: -4 °C; ready biodegradability: readily biodegradable

Q: With O=P1(NCCCl)OCCCN1CCCl (stereo not given) as the compound, how does the melting point read?
A: 40 °C

Q: With CCCCCCCCCCCCCCN as the compound, how does the boiling point read?
A: 291 °C

Q: What about the log10 vapour pressure (mmHg) of the same compound?
A: -3.01

Q: And the melting point?
A: 83.1 °C

Q: What does the source list for CCCCOC(=O)CCCCCCCCC(=O)OCCCC?
A: boiling point: 344 °C; log10 vapour pressure (mmHg): -5.33; melting point: -10 °C

Q: Which log10 vapour pressure (mmHg) does the source give for Cc1cccc(C)c1N(C(=O)CCl)C1CCOC1=O (stereo not given) here?
A: -6.82

Q: What about the melting point of the same compound?
A: 146 °C

Q: With CCC(O)CCl (stereo not given) as the compound, how does the boiling point read?
A: 141 °C

Q: With Nc1ccc(O)cc1 as the compound, how does the boiling point read?
A: 284 °C

Q: What about the log10 vapour pressure (mmHg) of the same compound?
A: -4.4

Q: What about the melting point of the same compound?
A: 188 °C

Q: What about the ready biodegradability of the same compound?
A: readily biodegradable

Q: Which melting point does the source give for CCOC(=O)C1(c2ccccc2)CCN(C)CC1 here?
A: 270 °C

Q: With CC(=O)Nc1ccc(C)cc1C as the compound, how does the melting point read?
A: 129 °C

Q: With Cc1cc(-c2cc(C)c(O)c(C)c2)cc(C)c1O as the compound, how does the melting point read?
A: 222 °C

Q: With COC(=O)[C@@H]1[C@H]2C[C@H]3c4[nH]c5ccccc5c4CCN3C[C@@H]2CC[C@@H]1O as the compound, how does the melting point read?
A: 251 °C

Q: For CCOC(C(=O)c1ccccc1)c1ccccc1 (stereo not given), which melting point is on record?
A: 62 °C

Q: Which results are given for Clc1cc(Cl)c(-c2ccccc2)cc1Cl?
A: log10 Henry constant (atm·m³/mol): -3.7; log10 Koa: 8; log10 vapour pressure (mmHg): -3.01; melting point: 76.3 °C

Q: Which boiling point does the source give for BrCC1CO1 (stereo not given) here?
A: 135 °C

Q: And the melting point?
A: -40 °C

Q: Which melting point does the source give for CN(C(O)=NC(C)(C)c1ccccc1)c1ccccc1 here?
A: 72 °C

Q: With CN(C)c1ccccc1[N+](=O)[O-] as the compound, how does the melting point read?
A: -20 °C

Q: For NC(=O)Nc1cccc(F)c1, which log10 Koc (L/kg) is on record?
A: 1.77

Q: With CNc1ccc(C(=O)O)cc1 as the compound, how does the ready biodegradability read?
A: not readily biodegradable

Q: Which log10 vapour pressure (mmHg) does the source give for O=Cc1cccc([N+](=O)[O-])c1 here?
A: -2.14

Q: What about the melting point of the same compound?
A: 58.5 °C

Q: With CC(C)(Sc1cc(C(C)(C)C)c(O)c(C(C)(C)C)c1)Sc1cc(C(C)(C)C)c(O)c(C(C)(C)C)c1 as the compound, how does the melting point read?
A: 125 °C

Q: Which melting point does the source give for O=Cc1cc(Cl)ccc1O here?
A: 100 °C

Q: For CC(C(=O)[O-])c1ccccc1 (stereo not given), which boiling point is on record?
A: 261 °C

Q: For CNOC, which log10 vapour pressure (mmHg) is on record?
A: 2.58

Q: For CCCC=CCC=O, which boiling point is on record?
A: 151 °C

Q: For CCCCCN1C(=O)c2ccc([N+](=O)[O-])cc2C1=O, which ready biodegradability is on record?
A: readily biodegradable

same assay, conditions: fish

Q: Which log10 biotransformation half-life (days) does the source give for CCCCC(CC)COC(=O)c1nc(Cl)c(Cl)c(N)c1Cl (stereo not given) here?
A: 0.45

Q: For NCc1cccc(CN)c1, which log10 BCF is on record?
A: 0.43

Q: For Oc1c(Cl)cccc1Cl, which log10 BCF is on record?
A: 1.08

Q: With CCc1cc(C(C)(C)C)c(O)c(C(C)(C)C)c1 as the compound, how does the log10 BCF read?
A: 3.46

Q: What about the log10 biotransformation half-life (days) of the same compound?
A: 0.86

Q: Which results are given for Clc1cc(Cl)c(-c2ccccc2)cc1Cl?
A: log10 BCF: 3.78; log10 biotransformation half-life (days): 1.84

Q: For CNc1ccc(C(=O)O)cc1, which log10 BCF is on record?
A: 0.38
